The text below walks through data of patent US5322698A, “Process for the preparation of a tablet or dragee composition containing a heat-, light- and moisture-sensitive active ingredient having monoclinic crystal structure” (priority 1990, dated 1994).

Counter-ions that a name gives are not always drawn. Like-named read-outs stand apart in the source and are kept apart here.

By half-life is commonly meant the time in which the quantity being followed falls by half. One may read the bioavailability as the share of a dose that reaches the circulation, judged against a reference dose that is usually intravenous.

The nature of series [1]: Clinical investigations: half life in blood and relative bioavailability. The class given is in vivo, human. Particulars: for half-life: human, blood, read-out: half life measured in the blood (converted).
Series [2] can be described thus: Storage experiments in the presence of moisture, heat and light load (wet-granulated tablets). The class given is physicochemical. Particulars: in the wet-granulated tablet of Comparative Example 1. An excerpt: The tablets obtained were subjected to storage experiments carried out in the presence of moisture and heat as well as light load.
The conditions of series [3]: antiarrhythmic reference drugs; Welling et al. 1985; cited from earlier work.

Consider `Cc1cccc(C)c1NNC(=N)N(C)C` [1-(2,6-Dimethylphenyl)-4,4'-dimethylaminoguanidine hydrochloride], for which, in series [1] (composition according to the invention, clinical), the relative bioavailability result is given as “about 80%”. For the same compound, the half-life in series [1] (composition according to the invention) is 3.2 h; in series [1] (injectable composition containing the same active ingredient) it was 2.4 h.

As for `O=C1O[C@H]([C@@H](O)CO)C(O)=C1O` [ascorbic acid], the “prevention of decomposition process by antioxidant” value in series [2] is given as “could not be prevented by ascorbic acid”.

Consider `C=C[C@H]1C[N@@]2CC[C@H]1C[C@@H]2[C@@H](O)c1ccnc2ccc(OC)cc12` [quinidine], for which, in series [3], the bioavailability is recorded as 40 to 70%.
